From patent US20230172849A1, “INHALED STATINS FOR TREATMENT OF VIRAL RESPIRATORY DISEASES” (priority 2020, published 2023) come the findings set out here.

Entries after “also recorded” stand apart in the source; their conditions may differ. Where a name gives a salt, the structure may show the parent alone. Read-outs that look alike come from different tables or passages of the source.

The target in experiment [1] is SARS-CoV-2 Spike S1 (RBD) (Severe acute respiratory syndrome coronavirus 2, UniProt P0DTC2). As to the kind of experiment: biochemical. The format is binding.
The subject of a further experiment is SARS-CoV-2. As to the kind of experiment: combination therapy, viral load by RT-PCR (ORF1ab gene) in Calu-3 cells. Type of experiment: cell-based. On the set-up: key to enhanced decrease of viral load, combination vs two single agents: Each combination that showed an enhanced decrease of viral load as compared with the two single agents is denoted by “E”; Combinations that showed a slight trend towards an enhanced decrease of viral load as compared with the two single agents is denoted by “(e)”; —. The following applies: for decrease of viral load, agent alone: FIG. 31, mixed with SARS-CoV-2 (MOI 0.01) 1 hour at room temperature, RT-PCR (ORF1ab) 24 hours post infection, of the control.

The mark [2] stands for this setting: Table 2, read-out: Affinity (nM) of binding to SARS-COV2 Spike protein.

As to `C[C@H](N[C@@H](CCc1ccccc1)C(=O)O)C(=O)N1CCC[C@H]1C(=O)O` [INS107], the “binding to SARS-COV-2 S-protein (in words)” value (from here on “binding”) in experiment [1] (MST binding assay) is “no binding is indicated”.
With `C[C@@H]1C[C@H]2[C@@H]3CCC4=CC(=O)C=C[C@]4(C)[C@@]3(F)[C@@H](O)C[C@]2(C)[C@@]1(O)C(=O)CO` [Dexamethasone, dexamethasone], in the experiment with SARS-CoV-2, the “decrease of viral load, agent alone” value was found to be 46%.
As for Hydroxy Simvastatin [INS102-S], the “binding” value in experiment [1] (MST binding assay) is recorded as “weak binding”.
Consider `CCC(C)(C)C(=O)O[C@H]1C[C@@H](C)C=C2C=C[C@H](C)[C@H](CC[C@@H](O)C[C@@H](O)CC(=O)O)[C@H]21` [INS106, Simvastatin Hydroxy Acid, Ammonium Salt], for which the Kd in experiment [1] (setting [2]) lay in the range of 1570 to 2600 nM.
In the case of `CC[C@H](C)C(=O)O[C@H]1C[C@H](O)C=C2C=C[C@H](C)[C@H](CC[C@@H](O)C[C@@H](O)CC(=O)O)[C@H]21` [INS101, Pravastatin Sodium], the “binding” value in experiment [1] (MST binding assay) is given as “weak binding; also recorded: none or very low affinity”. Also, the Remarks entry in experiment [1] (Table 1, binding to SARS-CoV-2 S1) is “No interaction/weak binder”.
For `CC[C@H](C)C(=O)O[C@H]1C[C@@H](C)C=C2C=C[C@H](C)[C@H](CC[C@@H]3C[C@@H](O)CC(=O)O3)[C@H]21` [INS105, Lovastatin], the Kd in experiment [1] (setting [2]) was in the range of 529 to 929 nM.
In the case of `CC(C)c1c(C(=O)Nc2ccccc2)c(-c2ccccc2)c(-c2ccc(F)cc2)n1CC[C@@H](O)C[C@@H](O)CC(=O)O` [INS104, Atorvastatin], the Kd in experiment [1] and in experiment [1] (read-out: Affinity (nM) of binding to SARS-COV2 Spike protein) was 234 to 456 nM each time. For the same molecule, the Remarks entry in experiment [1] is reported as “Strong Binding”. For the same molecule, the S/N in experiment [1] is 8.5-8.7. The “binding” value in experiment [1] is on record as “bind with SARS-COV-2 S-protein at nanomolar (nM) concentrations”. The “decrease of viral load, agent alone” value with SARS-CoV-2 is reported as 22%. The “decrease in viral load, combination with remdesivir or dexamethasone vs monotherapies” value in the experiment with SARS-CoV-2 (FIGS. 30, 31, statin and SARS-CoV-2 (MOI 0.01) mixed 1 hour at room temperature, 24 hours post infection) is given as “synergistic”. Further, the “enhanced decrease of viral load, combination vs two single agents” value (from here on “enhanced decrease of viral load”) in the experiment on SARS-CoV-2 (statin 0.2 μM + Dex 0.1 μM) is given as “—”; with SARS-CoV-2 (statin 0.2 μM + Dex 1 μM), “(e)”; in the experiment with SARS-CoV-2 (statin 0.2 μM + Dex 10 μM), “—”; in the experiment with SARS-CoV-2 (statin 0.2 μM + Remde 1), “—”; in the experiment with SARS-CoV-2 (statin 0.2 μM + Remde 10), “—”; in the experiment with SARS-CoV-2 (statin 0.2 μM + Remde 100), “(e)”. Besides, the “enhanced decrease of viral load” value in the experiment with SARS-CoV-2 (statin 1 μM + Dex 0.1 μM) was “—”; with SARS-CoV-2 (statin 1 μM + Dex 1 μM) it was “E”; in the experiment with SARS-CoV-2 (statin 1 μM + Dex 10 μM) it was “(e)”; with SARS-CoV-2 (statin 1 μM + Remde 1), “—”; with SARS-CoV-2 (statin 1 μM + Remde 10), “(e)”; in the experiment with SARS-CoV-2 (statin 1 μM + Remde 100) it was “—”. Besides, the “enhanced decrease of viral load” value is “—” in the experiment on SARS-CoV-2 (statin 5 μM + Dex 0.1 μM); “synergistic enhancement and E” in the experiment with SARS-CoV-2 (statin 5 μM + Dex 1 μM); “enhancement was maintained at a lower level and E” in the experiment with SARS-CoV-2 (statin 5 μM + Dex 10 μM); “—” in the experiment on SARS-CoV-2 (statin 5 μM + Remde 1); “enhancement in the decrease of viral load and E” in the experiment with SARS-CoV-2 (statin 5 μM + Remde 10); “—” in the experiment on SARS-CoV-2 (statin 5 μM + Remde 100).
